Test results reported in patent US20230190778A1, “COMPOSITION COMPRISING GLUCOSE OLIGOSACCHARIDE AND PROCESS FOR MAKING THE SAME AND USE THEREOF” (CARGILL, INCORPORATED, priority 2020, published 2023).

Legend:
[1] = tested on: chicken macrophage-like cell line HD11; assay: Nitric oxide (NO)-production assay (Griess); type: cell-based; conditions: HD11 cells
Procedure: A nitric oxide production assay using chicken macrophage-like cell line HD11, as also described by Biggelaar et al., Vaccines 2020, 8(2), 332, was carried out to compare immune responses in terms of NO production of the glucose-oligosaccharide according to Example 1 and a prior art glucose-oligosaccharide fibre according to Example 2.
To obtain a standard NO calibration curve, the Griess assay was used as described by Biggelaar et al.
On day 1 HD11 cell were seeded, day 2 compounds were added at different concentrations i.e. at 10 ppm, 50 ppm and 100 ppm. […] Compounds were tested in triplicate per NO assay i.e. in total 3 series of NO assays were performed per compound per concentration.
(NB: Negative output implies zero NO production. Negative values arise due to the calculation based on the standard NO calibration curve. Negative output can be seen as 0 NO production.)

[2] = tested on: developing embryos (unhatched chicks); assay: In ovo trial (hatchability / safety); type: in vivo, chicken; conditions: 1 mL injected in ovo at 17 days of incubation; at up to just 0.006 mg; FIG. 4
Procedure: The trials were thus carried out to indicate safety of the compound according to the invention in animals In this case, a comparison was made with Example 3, a commercially available conjugated linoleic acid (CLA). It is known that CLA may modulate the immune system.
480 eggs we incubated under standard conditions. They were divided unto 8 groups of 10 eggs replicated 6 times. At 17 days of incubation eggs were injected with 1 mL of the respective solution of Example 1 and Example 3 at increasing concentrations. The intention was to deliver into the amniotic fluid to be orally consumed and digested by the developing embryos according to the method described by (Uni et al., 2005, Poult Sci 84:764-770). At day of hatch, hatched chicks as well as remaining non-hatched eggs were counted and % hatchability was calculated to indicate safety of injected materials by not causing mortality.

| Substance | NO production (positive control) [1] | hatchability [2] |
| --- | --- | --- |
| Lipopolysaccharide [LPS] | high NO production |  |
| conjugated linoleic acid [Example 3] |  | Not all of the chicks hatched |
